Assays:
[1] = test system: rodent models of diabetes and one canine diabetes model; conditions: cited from earlier work
[2] = test system: facilitated glucose transporters (GLUTs); conditions: cited from earlier work
[3] = molecular target: T1, SGLT1 (Homo sapiens, UniProt P13866); test: Cell-based 14C-AMG uptake inhibition assay, CHOK1 cells expressing human SGLT1; design: expressed in transfected cells; conditions: CHOK1 cells stably expressing human SGLT1, 0.5 mM 14C-AMG, 30 min uptake; read-out: hSGLT1 (IC50, nM) [A]
T1 sequence (P13866 1-664): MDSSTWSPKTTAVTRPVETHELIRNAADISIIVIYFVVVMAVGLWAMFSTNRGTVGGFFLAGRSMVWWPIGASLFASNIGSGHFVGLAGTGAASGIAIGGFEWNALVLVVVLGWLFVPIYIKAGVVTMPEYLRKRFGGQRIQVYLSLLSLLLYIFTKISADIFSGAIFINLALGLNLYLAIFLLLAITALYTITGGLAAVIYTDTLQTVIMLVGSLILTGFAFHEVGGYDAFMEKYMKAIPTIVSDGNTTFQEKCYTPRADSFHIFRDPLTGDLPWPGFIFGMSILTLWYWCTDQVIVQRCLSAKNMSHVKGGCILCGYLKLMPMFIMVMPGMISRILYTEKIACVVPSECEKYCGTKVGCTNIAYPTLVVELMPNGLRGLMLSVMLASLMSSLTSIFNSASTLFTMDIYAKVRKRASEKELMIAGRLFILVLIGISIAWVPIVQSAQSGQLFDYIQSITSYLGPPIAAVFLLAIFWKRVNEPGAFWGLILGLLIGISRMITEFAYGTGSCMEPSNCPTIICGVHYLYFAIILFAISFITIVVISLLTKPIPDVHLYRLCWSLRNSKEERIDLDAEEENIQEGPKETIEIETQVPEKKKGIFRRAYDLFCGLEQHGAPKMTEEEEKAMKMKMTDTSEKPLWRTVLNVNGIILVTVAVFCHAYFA
Experimental: (§1) Inhibition of SGLT activity with Compound 1 and Compound 2 was assessed in CHOK1 cells stably expressing either human SGLT1 or human SGLT2. Compound 1 and Compound 2, are described in U.S. Patent Application Nos. 2005/0233988 and 2008/0027122, the contents of which are incorporated by reference in their entirety.
CHOK1 cells expressing human SGLT2 or human SGLT1 were seeded in 24-well plates at a density of approximately 400,000 cells/well in F-12 nutrient mixture (Ham's F-12) containing 10% fetal bovine serum, 400 ug/ml Geneticin, 50 units/ml sodium penicillin G (Gibco-BRL) and 50 ug/ml streptomycin sulfate. Cells were maintained in culture for 2 days at 37° C. in a humidified atmosphere containing 5% CO2. On the day of the assay, Compound 1 and Compound 2 were dissolved in DMSO and then diluted in assay buffer. The final concentration of DMSO was 0.5%. Assay buffer contained 137 mM NaCl, 5 mM KCl, 1 mM CaCl2, 1 mM MgCl2, 50 mM Hepes, and 20 mM Tris, pH 7.4. To start the assay, cells were washed once with the assay buffer and then incubated with 250 ul of the assay buffer containing Compound 1 or Compound 2 for 10 min at 37° C. […] Cells were then solubilized with 0.3 N NaOH and aliquots were taken for determination of radioactivity by a liquid scintillation counter. […] Specific uptake was normalized for the protein concentrations measured by the method of Bradford. […]

[4] = molecular target: T2, SGLT2 (Homo sapiens, UniProt P31639); test: Cell-based 14C-AMG uptake inhibition assay, CHOK1 cells expressing human SGLT2; design: expressed in transfected cells; conditions: for IC50: CHOK1 cells stably expressing human SGLT2, 0.5 mM 14C-AMG, 30 min uptake, read-out: hSGLT2 (IC50, nM) [B]; for [A]/[B] (fold): ratio hSGLT1 IC50 / hSGLT2 IC50
T2 sequence (P31639 1-672): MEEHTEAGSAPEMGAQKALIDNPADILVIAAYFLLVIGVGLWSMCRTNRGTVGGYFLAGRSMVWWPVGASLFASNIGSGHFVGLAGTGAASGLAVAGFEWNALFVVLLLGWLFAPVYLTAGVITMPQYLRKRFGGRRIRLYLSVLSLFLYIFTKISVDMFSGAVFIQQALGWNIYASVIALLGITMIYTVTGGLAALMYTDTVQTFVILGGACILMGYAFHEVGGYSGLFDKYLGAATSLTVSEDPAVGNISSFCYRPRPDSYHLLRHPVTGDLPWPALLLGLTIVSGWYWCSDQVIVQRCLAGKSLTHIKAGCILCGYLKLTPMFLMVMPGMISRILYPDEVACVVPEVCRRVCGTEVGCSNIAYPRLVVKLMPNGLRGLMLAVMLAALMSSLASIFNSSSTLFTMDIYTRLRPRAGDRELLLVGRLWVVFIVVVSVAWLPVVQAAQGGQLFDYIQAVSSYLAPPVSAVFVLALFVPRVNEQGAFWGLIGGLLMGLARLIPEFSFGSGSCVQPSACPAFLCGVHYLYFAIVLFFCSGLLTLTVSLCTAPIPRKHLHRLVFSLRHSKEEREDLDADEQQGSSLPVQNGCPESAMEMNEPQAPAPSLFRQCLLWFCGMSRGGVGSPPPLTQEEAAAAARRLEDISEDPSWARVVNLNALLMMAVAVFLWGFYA
Experimental: as §1
CHOK1 cells expressing human SGLT2 or human SGLT1 were seeded in 24-well plates at a density of approximately 400,000 cells/well in F-12 nutrient mixture (Ham's F-12) containing 10% fetal bovine serum, 400 ug/ml Geneticin, 50 units/ml sodium penicillin G (Gibco-BRL) and 50 ug/ml streptomycin sulfate. Cells were maintained in culture for 2 days at 37° C. in a humidified atmosphere containing 5% CO2. On the day of the assay, Compound 1 and Compound 2 were dissolved in DMSO and then diluted in assay buffer. The final concentration of DMSO was 0.5%. Assay buffer contained 137 mM NaCl, 5 mM KCl, 1 mM CaCl2, 1 mM MgCl2, 50 mM Hepes, and 20 mM Tris, pH 7.4. To start the assay, cells were washed once with the assay buffer and then incubated with 250 ul of the assay buffer containing Compound 1 or Compound 2 for 10 min at 37° C. The transport reaction was initiated by addition of 50 ul ^14C-AMG solution (final concentration, 0.5 mM ^14C-AMG). After incubation for 30 minutes at 37° C., the uptake was stopped by aspiration of the incubation mixture and the cells were washed three times with ice-cold PBS. Cells were then solubilized with 0.3 N NaOH and aliquots were taken for determination of radioactivity by a liquid scintillation counter. Nonspecific AMG uptake was defined as that which occurred in the presence of 100 uM of phlorizin, a specific inhibitor of sodium-dependent glucose cotransporter. Specific uptake was normalized for the protein concentrations measured by the method of Bradford. The 50% inhibitory concentration (IC50) values were calculated from dose-response curves by least square method.

[5] = test system: Male Sprague-Dawley (SD) rats; test: Oral AMG test in rats: AMG measured by NMR in GI tract, plasma and urine after SGLT inhibitor dosing; type: in vivo, rat; conditions: for AMG content retained in the GI system / amount of AMG detected in plasma / amount of AMG detected in the urine: rats, compound 0.3 or 3.0 mg/kg oral, AMG 2 g/kg oral 1 h later; for AMG content retained in the GI system: FIG. 1A; for amount of AMG detected in plasma: FIG. 1B; for amount of AMG detected in the urine: FIG. 1C
Experimental: Male Sprague-Dawley (SD) rats were dosed by oral gavage with either vehicle, 0.5% methylcellulose (methocel) in sterile water, or one of the SGLT inhibitors (Compound 1 and Compound 2) at 0.3 or 3.0 mg/kg. Compounds were administered as a suspension in 0.5% methylcellulose and sterile water. One hour after dosing the animals with the compounds, AMG was administrated orally via gavage (2 g/kg). AMG was dissolved in sterile water. Rats were sacrificed 120 or 240 minutes after AMG administration. Urine and plasma samples were collected and the entire gastrointestinal tract was removed and placed into saline. Subsequently, a GI lysate was made. Aliquots were taken from the samples of plasma, urine and the GI lysate and were extracted with acetonitrile to precipitate protein. […] The aqueous portion was dried down and re-suspended in deuterated water to a volume of 0.5 ml.
Proton NMR spectra were acquired on a Bruker DMX 600 MHz NMR spectrometer (Bruker Biospin Corporation, Billerica, Mass.) with the probe temperature maintained at 32° C. The mildly elevated temperature was used to enhance the chemical shift separation between the solvent peak (the residual water in the sample) and the anomeric proton of AMG (a doublet at 4.80 ppm) which was used for quantification. The solvent peak was saturated using very low power irradiation (a field strength of about 4 Hz) during the pre-pulse delay followed by a 30° pulse to acquire the signal. The pre-pulse delay was 3.0 s and the acquisition time was 2.1 s. The sweep width was 13 ppm using 32 k complex points. Before fourier transformation the data was apodized with 0.5 Hz exponential linebroadening. The amount of AMG present in the sample was determined relative to an internal reference, DSS (2,2-dimethyl-2-silapentane-d6-sulfonic acid, sodim salt) at 0.00 ppm.

[6] = molecular target: T2, SGLT2; conditions: literature value (Kanai et al. 1994; US 2008/0234367); cited from earlier work
[7] = molecular target: T1, SGLT1; conditions: literature value (Kanai et al. 1994; US 2008/0234367); cited from earlier work
[8] = rodent models of diabetes and one canine diabetes model

SMILES | IC50 [3] [nM] | IC50 [4] [nM] | [A]/[B] (fold) [4] [fold] | AMG content retained in the GI system [5] | amount of AMG detected in plasma [5] | amount of AMG detected in the urine [5] | other results
O=C(CCc1ccc(O)cc1)c1c(O)cc(O)cc1O[C@@H]1O[C@H](CO)[C@@H](O)[C@H](O)[C@H]1O [phlorizin] |  |  |  |  |  |  | fasting and fed plasma glucose levels [1, 8]: lowered fasting and fed plasma glucose levels; glucose excretion [1, 8]: promoted glucose excretion; adverse effects on plasma ion balance, renal function or renal morphology ([1]; treatment for as long as two weeks): No adverse effects
O=C(CCc1ccc(O)cc1)c1c(O)cc(O)cc1O [phloretin] |  |  |  |  |  |  | inhibition of facilitated glucose transporters (GLUTs) [2]: potent inhibitor
OC[C@@H]1O[C@H](n2cc(Cc3ccc(C4CC4)cc3)c3c(F)cccc32)[C@@H](O)[C@H](O)[C@H]1O [Compound 2] | 270 | 1.9 | 142 | markedly increased at the higher dose | dose-dependent decreases | increased amount of AMG detected in the urine | 
CO[C@H]1O[C@H](CO)[C@@H](O)[C@H](O)[C@H]1O [AMG, Methyl-alpha-D-glucopyranoside] |  |  |  |  |  |  | Km [6]: 1600 µM; absorption of oral AMG in vehicle treated rats ([5]; AMG 2 g/kg oral gavage, vehicle treated rats, GI system, plasma and urine samples): absorbed from the GI system; Km [7]: 400 µM
CCc1ccc(Cc2cn([C@@H]3O[C@H](CO)[C@@H](O)[C@H](O)[C@H]3O)c3ccccc23)cc1 [Compound 1] | 1700 | 8.4 | 202 | did not cause a significant retention | dose-dependent decreases | increase in the amount of AMG detected in the urine | 

From patent publication US8147801B2, “Methods of using alpha-methylglucoside (AMG) as an indicator for glucose absorption and excretion” (Janssen Pharmaceutica, N.V., priority 2009, dated 2012)
